Reference: patent US20230312478A1, “HERBICIDAL COMPOUNDS” (SYNGENTA CROP PROTECTION AG, priority 2020, published 2023)

Key:
Format in all cases: in vivo
Details in all cases: 250 g/ha, evaluated visually after 13 days, scale 0-5
[1] = test system: Abutilon theophrasti (ABUTH); assay: Herbicidal efficacy, application post-emergence; parameters: key: 5 = total damage to plant; 0 = no damage to plant
Procedure: (§1) Seeds of a variety of test species [Ipomoea hederacea (IPOHE); Zea mays (ZEAMX); Echinochloa crus-galli (ECHCG); Setaria faberi (SETFA); Abutilon theophrasti (ABUTH); Amaranthus retroflexus (AMARE)] were sown in standard sterilised soil in pots. After cultivation for one day (pre-emergence) or after 8 days cultivation (post-emergence) under controlled conditions in a glasshouse (at 24/16° C., day/night; 14 hours light; 65 % humidity), the plants were sprayed with an aqueous spray solution derived from the formulation of the technical active ingredient in acetone / water (50:50) solution containing 0.5% Tween 20 (polyoxyethelyene sorbitan monolaurate, CAS RN 9005-64-5), subsequently diluted in water, and sprayed to give the stated application rate.
(§2) The test plants were then grown under controlled conditions in a glasshouse (at 24/16° C., day/night; 14 hours light; 65 % humidity) and watered twice daily.
(§3) After 13 days for pre- and post-emergence, the test was evaluated visually for percentage phytotoxicity to the plant (where 5 = total damage to plant; 0 = no damage to plant).

[2] = test system: Setaria faberi (SETFA); assay: Herbicidal efficacy, application pre-emergence; parameters: key: 5 = total damage to plant; 0 = no damage to plant
Procedure: as §1, §2, §3

[3] = test system: Ipomoea hederacea (IPOHE); assay: Herbicidal efficacy, application pre-emergence; parameters: key: 5 = total damage to plant; 0 = no damage to plant
Procedure: as §1, §2, §3

[4] = test system: Echinochloa crus-galli (ECHCG); assay: Herbicidal efficacy, application pre-emergence; parameters: key: 5 = total damage to plant; 0 = no damage to plant
Procedure: as §1, §2, §3

[5] = test system: Abutilon theophrasti (ABUTH); assay: Herbicidal efficacy, application pre-emergence; parameters: key: 5 = total damage to plant; 0 = no damage to plant
Procedure: as §1, §2, §3

[6] = test system: Amaranthus retroflexus (AMARE); assay: Herbicidal efficacy, application pre-emergence; parameters: key: 5 = total damage to plant; 0 = no damage to plant
Procedure: as §1, §2, §3

[7] = test system: Zea mays (ZEAMX); assay: Herbicidal efficacy, application pre-emergence
Procedure: as §1, §2, §3

[8] = test system: Setaria faberi (SETFA); assay: Herbicidal efficacy, application post-emergence
Procedure: as §1, §2, §3

[9] = test system: Ipomoea hederacea (IPOHE); assay: Herbicidal efficacy, application post-emergence
Procedure: as §1, §2, §3

[10] = test system: Zea mays (ZEAMX); assay: Herbicidal efficacy, application post-emergence
Procedure: as §1, §2, §3

[11] = test system: Echinochloa crus-galli (ECHCG); assay: Herbicidal efficacy, application post-emergence
Procedure: as §1, §2, §3

[12] = test system: Amaranthus retroflexus (AMARE); assay: Herbicidal efficacy, application post-emergence
Procedure: as §1, §2, §3

Row | SMILES | phytotoxicity to the plant, ABUTH [1] | phytotoxicity to the plant, SETFA [2] | phytotoxicity to the plant, IPOHE [3] | phytotoxicity to the plant, ECHCG [4] | phytotoxicity to the plant, ABUTH [5] | phytotoxicity to the plant, AMARE [6] | phytotoxicity to the plant, ZEAMX [7] | phytotoxicity to the plant, SETFA [8] | phytotoxicity to the plant, IPOHE [9] | phytotoxicity to the plant, ZEAMX [10] | phytotoxicity to the plant, ECHCG [11] | phytotoxicity to the plant, AMARE [12]
1 | Cc1c(F)cccc1NC(=O)C1C(=O)N(C)CC1c1cc(C)n(C(F)F)n1 (stereo not drawn) [Compound 9, 4-[1-(difluoromethyl)-5-methyl-pyrazol-3-yl]-N-(3-fluoro-2-methyl-phenyl)-1-methyl-2-oxo-pyrrolidine-3-carboxamide] | 0 | 5 | 1 | 5 | 1 | 1 | 3 | 4 | 3 | 3 | 4 | 3
2 | CCc1cc(C2CN(C)C(=O)C2C(=O)Nc2cccc(F)c2C)nn1C(F)F (stereo not drawn) [Compound 10, 4-[1-(difluoromethyl)-5-ethyl-pyrazol-3-yl]-N-(3-fluoro-2-methylphenyl)-1-methyl-2-oxo-pyrrolidine-3-carboxamide] | 0 | 5 | 2 | 5 | 2 | 1 | 4 | 4 | 4 | 4 | 4 | 1
3 | Cc1cc(C2CN(C)C(=O)C2C(=O)Nc2cccc(F)c2F)nn1C(F)F (stereo not drawn) [Compound 33, 4-[1-(difluoromethyl)-5-methyl-pyrazol-3-yl]-N-(2,3-difluorophenyl)-1-methyl-2-oxo-pyrrolidine-3-carboxamide] | 1 | 5 | 1 | 5 | 1 | 2 | 4 | 4 | 4 | 3 | 4 | 2
4 | CCc1cc(C2CN(C)C(=S)C2C(=O)Nc2cccc(F)c2F)nn1C(F)F (stereo not drawn) [Compound 38, 4-[1-(difluoromethyl)-5-ethyl-pyrazol-3-yl]-N-(2,3-difluorophenyl)-1-methyl-2-thioxo-pyrrolidine-3-carboxamide] | 0 | 5 | 2 | 5 | 0 | 0 | 4 | 4 | 4 | 3 | 4 | 1
5 | Cc1cc(C2CN(C)C(=O)C2C(=O)Nc2ccc(F)cc2F)nn1C(F)F (stereo not drawn) [Compound 57, 4-[1-(difluoromethyl)-5-methyl-pyrazol-3-yl]-N-(2,4-difluorophenyl)-1-methyl-2-oxo-pyrrolidine-3-carboxamide] | 1 | 5 | 1 | 5 | 1 | 1 | 2 | 4 | 3 | 2 | 4 | 1
6 | CCc1cc(C2CN(C)C(=O)C2C(=O)Nc2ccc(F)cc2F)nn1C(F)F (stereo not drawn) [Compound 58, 4-[1-(difluoromethyl)-5-ethyl-pyrazol-3-yl]-N-(2,4-difluorophenyl)-1-methyl-2-oxo-pyrrolidine-3-carboxamide] | 0 | 5 | 1 | 5 | 0 | 0 | 3 | 4 | 3 | 2 | 4 | 1
7 | Cc1c(Br)c(C2CN(C)C(=O)C2C(=O)Nc2ccc(F)cc2F)nn1C(F)F (stereo not drawn) [Compound 59, 4-[4-bromo-1-(difluoromethyl)-5-methyl-pyrazol-3-yl]-N-(2,4-difluorophenyl)-1-methyl-2-oxo-pyrrolidine-3-carboxamide] | 0 | 5 | 0 | 5 | 1 | 0 | 1 | 4 | 1 | 3 | 4 | 1
8 | Cc1cc(C2CN(C)C(=S)C2C(=O)Nc2ccc(F)cc2F)nn1C(F)F (stereo not drawn) [Compound 61, 4-[1-(difluoromethyl)-5-methyl-pyrazol-3-yl]-N-(2,4-difluorophenyl)-1-methyl-2-thioxo-pyrrolidine-3-carboxamide] | 0 | 5 | 0 | 5 | 0 | 2 | 1 | 3 | 1 | 2 | 4 | 1
9 | CCc1cc(C2CN(C)C(=S)C2C(=O)Nc2ccc(F)cc2F)nn1C(F)F (stereo not drawn) [Compound 62, 4-[1-(difluoromethyl)-5-ethyl-pyrazol-3-yl]-N-(2,4-difluorophenyl)-1-methyl-2-thioxo-pyrrolidine-3-carboxamide] | 1 | 5 | 0 | 5 | 0 | 0 | 2 | 4 | 1 | 1 | 4 | 1
